According to US8952024B2, “Herbicidal pyrimidone derivatives” (E I du Pont de Nemours and Company, priority 2009, dated 2015):

Tests used:
Format in all cases: in vivo
[1] = system: large crabgrass (Digitaria sanguinalis); assay: Test A pre-/postemergence plant response
Summary of the method: (§1)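 Injury scores (0, no effect; 100, complete control) come from visual comparison with untreated controls roughly ten days post-treatment. Test chemicals in a surfactant-containing non-phytotoxic solvent were applied as a directed soil spray preemergence and to one- to two-leaf seedlings postemergence.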

[2] = system: pigweed (Amaranthus retroflexus); assay: Test A pre-/postemergence plant response
Summary of the method: as §1

[3] = system: velvetleaf (Abutilon theophrasti); assay: Test A pre-/postemergence plant response
Summary of the method: as §1

corn (Zea mays) = assay: Test A pre-/postemergence plant response
Summary of the method: as §1

[4] = system: wheat (Triticum aestivum); assay: Test A pre-/postemergence plant response
Summary of the method: as §1

[5] = system: giant foxtail (Setaria faberii); assay: Test A pre-/postemergence plant response
Summary of the method: as §1

[6] = system: morningglory (Ipomoea spp.); assay: Test A pre-/postemergence plant response
Summary of the method: as §1

[7] = system: barnyardgrass (Echinochloa crus-galli); assay: Test A pre-/postemergence plant response
Summary of the method: as §1

rice (Oryza sativa) = assay: Test B flooded paddy test; settings: for Plant response rating, Flood, Rice: 250 g ai/ha, flooded paddy test, visual rating on 0 to 100 scale (0 no effect, 100 complete control) after 13 to 15 days; for Plant response rating, Rice: Flood (flooded paddy test), 13 to 15 days; for Rice plant response rating: Flood, scale 0 to 100 (0 no effect, 100 complete control)
Summary of the method: (§2)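 Post-flood paddy application: compounds are introduced into water 3 cm deep over the soil, reaching plants at the 2-leaf stage. The water level is maintained, and after 13–15 days under greenhouse conditions, response is judged by eye relative to controls, where 100 means complete control.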

[8] = system: ducksalad (Heteranthera limosa); assay: Test B flooded paddy test; settings: for Plant response rating, Flood, Ducksalad: 250 g ai/ha, flooded paddy test, visual rating on 0 to 100 scale (0 no effect, 100 complete control) after 13 to 15 days; for Plant response rating, Ducksalad: Flood (flooded paddy test), 13 to 15 days; for Ducksalad plant response rating: Flood, scale 0 to 100 (0 no effect, 100 complete control)
Summary of the method: as §2

[9] = system: barnyardgrass (Echinochloa crus-galli); assay: Test B flooded paddy test; settings: for Plant response rating, Flood, Barnyardgrass: 250 g ai/ha, flooded paddy test, visual rating on 0 to 100 scale (0 no effect, 100 complete control) after 13 to 15 days; for Plant response rating, Barnyardgrass: Flood (flooded paddy test), 13 to 15 days; for Barnyardgrass plant response rating: Flood, scale 0 to 100 (0 no effect, 100 complete control)
Summary of the method: as §2

[10] = system: umbrella sedge (Cyperus difformis); assay: Test B flooded paddy test; settings: for Plant response rating, Flood, Sedge, Umbrella: 250 g ai/ha, flooded paddy test, visual rating on 0 to 100 scale (0 no effect, 100 complete control) after 13 to 15 days; for Plant response rating, Sedge, Umbrella: Flood (flooded paddy test), 13 to 15 days; for Sedge, Umbrella plant response rating: Flood, scale 0 to 100 (0 no effect, 100 complete control)
Summary of the method: as §2

[11] = Postemergence, 125 g ai/ha, 0 to 100 scale where 0 is no effect and 100 is complete control
[12] = Postemergence, 500 g ai/ha, visual injury, 0 to 100 scale (0 no effect, 100 complete control), approx. ten days
[13] = Preemergence, 125 g ai/ha, 0 to 100 scale where 0 is no effect and 100 is complete control, approximately ten days
[14] = Preemergence, 500 g ai/ha, 0 to 100 scale, 0 = no effect, 100 = complete control
[15] = Postemergence, 125 g ai/ha, visual injury, 0 to 100 scale (0 no effect, 100 complete control), approx. ten days
[16] = 62 g ai/ha, scale of 0 to 100 where 0 is no effect and 100 is complete control
[17] = 125 g ai/ha, scale 0 to 100, 0 is no effect, 100 is complete control
[18] = Postemergence, 500 g ai/ha, 0 to 100 scale, 0 = no effect, 100 = complete control, approx. ten days
[19] = Preemergence, 125 g ai/ha, 0 to 100 scale, 0 = no effect, 100 = complete control
[20] = Preemergence, 500 g ai/ha, visual injury, 0 to 100 scale (0 no effect, 100 complete control), approx. ten days
[21] = 31 g ai/ha, scale of 0 to 100 where 0 is no effect and 100 is complete control
[22] = 62 g ai/ha, scale 0 to 100, 0 is no effect, 100 is complete control

Compound: COc1ccc(-n2c(-c3ccccc3)ncc(C(=O)C3=C(O)CCCC3=O)c2=O)c(OC)c1 [Compound 256]
- Plant response rating, Crabgrass, Large [1, 11]: 30
- Crabgrass, Large plant response rating [1, 12]: 80
- Plant response rating, Crabgrass, Large [1, 13]: 10
- Plant response rating, Crabgrass, Large [1, 14]: 80
- Plant response rating, Pigweed [2, 15]: 90
- Pigweed plant response rating [2, 12]: 100
- Plant response rating, Pigweed [2, 13]: 0
- Plant response rating, Pigweed [2, 14]: 90
- Plant response rating, Velvetleaf [3, 15]: 100
- Velvetleaf plant response rating [3, 12]: 100
- Plant response rating, Velvetleaf [3, 13]: 20
- Plant response rating, Velvetleaf [3, 14]: 80
- Plant response rating, Corn (corn (Zea mays); [11]): 0
- Corn plant response rating (corn (Zea mays); [12]): 10
- Plant response rating, Corn (corn (Zea mays); [13]): 0
- Plant response rating, Corn (corn (Zea mays); [14]): 0
- Plant response rating, Wheat [4, 15]: 0
- Wheat plant response rating [4, 12]: 0
- Plant response rating, Wheat [4, 13]: 0
- Plant response rating, Wheat [4, 14]: 0
- Plant response rating, Foxtail, Giant [5, 15]: 20
- Foxtail, Giant plant response rating [5, 12]: 70
- Plant response rating, Foxtail, Giant [5, 13]: 0
- Plant response rating, Foxtail, Giant [5, 14]: 30
- Plant response rating, Morningglory [6, 15]: 30
- Morningglory plant response rating [6, 12]: 80
- Plant response rating, Morningglory [6, 13]: 0
- Plant response rating, Morningglory [6, 14]: 50
- Plant response rating, Barnyardgrass [7, 11]: 40
- Barnyardgrass plant response rating [7, 12]: 90
- Plant response rating, Barnyardgrass [7, 13]: 0
- Plant response rating, Barnyardgrass [7, 14]: 70
- Plant response rating, Flood, Rice (rice (Oryza sativa)): 0
- Plant response rating, Rice (rice (Oryza sativa); [16]): 0
- Plant response rating, Rice (rice (Oryza sativa); [17]): 0
- Rice plant response rating (rice (Oryza sativa); 31 g ai/ha): 0
- Plant response rating, Flood, Ducksalad [8]: 85
- Plant response rating, Ducksalad [8, 16]: 40
- Plant response rating, Ducksalad [8, 17]: 80
- Ducksalad plant response rating ([8]; 31 g ai/ha): 30
- Plant response rating, Flood, Barnyardgrass [9]: 0
- Plant response rating, Barnyardgrass [9, 16]: 0
- Plant response rating, Barnyardgrass [9, 17]: 0
- Barnyardgrass plant response rating ([9]; 31 g ai/ha): 0
- Plant response rating, Flood, Sedge, Umbrella [10]: 75
- Plant response rating, Sedge, Umbrella [10, 16]: 40
- Plant response rating, Sedge, Umbrella [10, 17]: 75
- Sedge, Umbrella plant response rating ([10]; 31 g ai/ha): 30

Compound: O=C1CCCC(O)=C1C(=O)c1cnc(-c2cccc(Cl)c2)n(CC2CCCO2)c1=O (stereo not drawn) [Compound 142]
- Plant response rating, Crabgrass, Large [1, 11]: 70
- Plant response rating, Crabgrass, Large [1, 18]: 90
- Plant response rating, Crabgrass, Large [1, 19]: 30
- Plant response rating, Crabgrass, Large [1, 20]: 80
- Plant response rating, Pigweed [2, 11]: 90
- Plant response rating, Pigweed [2, 18]: 100
- Plant response rating, Pigweed [2, 19]: 90
- Plant response rating, Pigweed [2, 20]: 100
- Plant response rating, Velvetleaf [3, 11]: 100
- Plant response rating, Velvetleaf [3, 18]: 100
- Plant response rating, Velvetleaf [3, 19]: 20
- Plant response rating, Velvetleaf [3, 20]: 60
- Plant response rating, Corn (corn (Zea mays); [11]): 0
- Plant response rating, Corn (corn (Zea mays); [18]): 20
- Plant response rating, Corn (corn (Zea mays); [19]): 0
- Plant response rating, Corn (corn (Zea mays); [20]): 0
- Plant response rating, Wheat [4, 11]: 0
- Plant response rating, Wheat [4, 18]: 20
- Plant response rating, Wheat [4, 19]: 0
- Plant response rating, Wheat [4, 20]: 0
- Plant response rating, Foxtail, Giant [5, 11]: 30
- Plant response rating, Foxtail, Giant [5, 18]: 80
- Plant response rating, Foxtail, Giant [5, 19]: 0
- Plant response rating, Foxtail, Giant [5, 20]: 20
- Plant response rating, Morningglory [6, 11]: 100
- Plant response rating, Morningglory [6, 18]: 100
- Plant response rating, Morningglory [6, 19]: 0
- Plant response rating, Morningglory [6, 20]: 50
- Plant response rating, Barnyardgrass [7, 11]: 70
- Plant response rating, Barnyardgrass [7, 18]: 90
- Plant response rating, Barnyardgrass [7, 19]: 10
- Plant response rating, Barnyardgrass [7, 20]: 80
- Plant response rating, Flood, Rice (rice (Oryza sativa)): 0
- Plant response rating, Rice (rice (Oryza sativa); [16]): 0
- Plant response rating, Rice (rice (Oryza sativa); [17]): 0
- Rice plant response rating (rice (Oryza sativa); 31 g ai/ha): 0
- Plant response rating, Flood, Ducksalad [8]: 80
- Plant response rating, Ducksalad [8, 16]: 0
- Plant response rating, Ducksalad [8, 17]: 80
- Ducksalad plant response rating ([8]; 31 g ai/ha): 0
- Plant response rating, Flood, Barnyardgrass [9]: 10
- Plant response rating, Barnyardgrass [9, 16]: 0
- Plant response rating, Barnyardgrass [9, 17]: 0
- Barnyardgrass plant response rating ([9]; 31 g ai/ha): 0
- Plant response rating, Flood, Sedge, Umbrella [10]: 80
- Plant response rating, Sedge, Umbrella [10, 16]: 0
- Plant response rating, Sedge, Umbrella [10, 17]: 65
- Sedge, Umbrella plant response rating ([10]; 31 g ai/ha): 0

Compound: CCn1ncc(C(=O)c2cnc(-c3ccccc3)n(-c3ccccc3)c2=O)c1OS(=O)(=O)c1ccc(C)cc1 [Compound 16]
- Crabgrass, Large plant response rating [1, 15]: 10
- Plant response rating, Crabgrass, Large [1, 18]: 40
- Plant response rating, Crabgrass, Large [1, 19]: 40
- Plant response rating, Crabgrass, Large [1, 20]: 70
- Pigweed plant response rating [2, 15]: 50
- Plant response rating, Pigweed [2, 18]: 70
- Plant response rating, Pigweed [2, 19]: 30
- Plant response rating, Pigweed [2, 20]: 50
- Velvetleaf plant response rating [3, 15]: 70
- Plant response rating, Velvetleaf [3, 18]: 100
- Plant response rating, Velvetleaf [3, 19]: 0
- Plant response rating, Velvetleaf [3, 20]: 40
- Corn plant response rating (corn (Zea mays); [15]): 0
- Plant response rating, Corn (corn (Zea mays); [18]): 20
- Plant response rating, Corn (corn (Zea mays); [19]): 0
- Plant response rating, Corn (corn (Zea mays); [20]): 20
- Wheat plant response rating [4, 15]: 0
- Plant response rating, Wheat [4, 18]: 10
- Plant response rating, Wheat [4, 19]: 0
- Plant response rating, Wheat [4, 20]: 0
- Foxtail, Giant plant response rating [5, 15]: 30
- Plant response rating, Foxtail, Giant [5, 18]: 70
- Plant response rating, Foxtail, Giant [5, 19]: 30
- Plant response rating, Foxtail, Giant [5, 20]: 70
- Morningglory plant response rating [6, 15]: 10
- Plant response rating, Morningglory [6, 18]: 20
- Plant response rating, Morningglory [6, 19]: 0
- Plant response rating, Morningglory [6, 20]: 0
- Barnyardgrass plant response rating [7, 15]: 20
- Plant response rating, Barnyardgrass [7, 18]: 60
- Plant response rating, Barnyardgrass [7, 19]: 0
- Plant response rating, Barnyardgrass [7, 20]: 70
- Plant response rating, Flood, Rice (rice (Oryza sativa)): 10
- Plant response rating, Rice (rice (Oryza sativa); [21]): 0
- Plant response rating, Rice (rice (Oryza sativa); [22]): 0
- Plant response rating, Rice (rice (Oryza sativa); [17]): 0
- Plant response rating, Flood, Ducksalad [8]: 75
- Plant response rating, Ducksalad [8, 21]: 0
- Plant response rating, Ducksalad [8, 22]: 40
- Plant response rating, Ducksalad [8, 17]: 75
- Plant response rating, Flood, Barnyardgrass [9]: 10
- Plant response rating, Barnyardgrass [9, 21]: 0
- Plant response rating, Barnyardgrass [9, 22]: 0
- Plant response rating, Barnyardgrass [9, 17]: 0
- Plant response rating, Flood, Sedge, Umbrella [10]: 50
- Plant response rating, Sedge, Umbrella [10, 21]: 0
- Plant response rating, Sedge, Umbrella [10, 22]: 0
- Plant response rating, Sedge, Umbrella [10, 17]: 40
